Consider 8 molecules from patent US9889182B2, “Assisted enzyme replacement therapy” (The Regents of the University of California, priority 2009, dated 2018).

The test system of one series is 10T1/2 cells. Description: FACS cellular uptake of BODIPY conjugates in 10T1/2 cells. Type of series: cell-based, mouse. The procedure: 10T1/2 cells, an adherent non-transformed mouse fibroblast cell line, and HeLa cells, a common human cancer cell line, were purchased from ATCC and used before their 20th passage. Both cell lines were cultured in Dulbecco's modified eagle medium containing 10% fetal bovine serum at 37° C. in an 8% CO2 environment. For each experiment, cells were seeded onto 4 cm tissue culture plates (Nunc) and allowed to grow overnight to ˜80% confluency.
Compounds 1-5 identified in Table 1, below (0.5-1 μM), were added to each dish and incubated at 37° C./8% CO2 for 0.5-1 hr. Cells were then washed once in PBS, trypsinized with 500 μl ATV solution (Gibco) for 3 minutes, pelleted in a fixed angle centrifuge for 5 minutes at 5,000×G, then brought up in 1 mL PBS. Each sample was quickly (within 5 minutes) analyzed on a FACS VantageSE cell sorter (Becton-Dickinson) using the 488 nm argon/krypton laser line and a 530 nm band pass emission filter. 2,000-10,000 cells were counted per sample.

The test system of series [1] is FGF-2 binding to cell surface heparan sulfate. In words: Inhibition of biotinylated FGF-2 binding to wild-type CHO cells. Further details: species or system Chinese hamster. The procedure: (§1) Inhibition Experiments—Wild-type CHO cells were grown to confluence on 6-well tissue culture plates, harvested with 10 mM EDTA (37° C., 10 min), washed with phosphate-buffered saline (PBS), and incubated in suspension with biotinylated FGF-2 (10 ng/ml) (25) in F12 medium for 1 h at 4° C. in the presence of increasing concentrations of guanidinoneomycin (100 nM to 1.8 mM). The cells were then stained with streptavidin-phycoerythrin-Cy5 (BD Biosciences) for 20 min, washed three times with PBS, and analyzed by flow cytometry. Cells were also incubated in F12 medium containing 0.5 μM Arg9-BODIPY and increasing concentrations of guanidinoneomycin (1-300 μM) for 1 h at 37° C. and analyzed by flow cytometry.

The test system of series [2] is Wild-type CHO cells. Description: Inhibition of Arg9-BODIPY binding and uptake. In kind it is cell-based, Chinese hamster. As to conditions: Arg9-BODIPY 0.5 μM, guanidinoneomycin 1-300 μM, 1 h, 37° C. On the procedure:
as §1

For series [3], the system named is Wild-type CHO cells. Description: Saporin delivery, CellTiter-Blue viability, wild-type CHO cells. To be noted: at concentrations up to 100 nM. The procedure:
Saporin Delivery—A conjugate of saporin and biotinylated guanidinoneomycin was prepared by mixing streptavidinylated saporin (Advanced Targeting Systems) with biotinylated compound in 1:4 ratio. […] CellTiter-Blue (Promega) was added to the medium and cells were incubated for an additional 4 h to measure viability.

Series [4] has as its system Wild-type CHO cells. In words: Uptake of streptavidin-PE-Cy5 conjugates by flow cytometry, wild-type CHO cells. In kind it is cell-based, Chinese hamster. In general terms: A flow cytometer gives signals particle by particle.
Procedure: After thawing at room temperature, compounds were diluted into F12 medium to 1 μM. To this solution, streptavidin-PE-Cy5 (BD Biosciences) was added in a 1:1000 dilution to achieve a ratio of 1:3 of fluorophore to biotin. To ensure completion of the biotin-streptavidin reaction, the solution was gently mixed and allowed to incubate at room temperature, shielded from light for 30 min. Following this incubation, compounds were diluted to the desired concentration in growth medium. For experiments done at 4° C. solutions were incubated on ice for 30 min.
After washing with PBS, cells were incubated with the fluorescent-tagged guanidinoneomycin-, neomycin-, or Arg9-biotin for 1 h at 37° C. under an atmosphere of 5% CO2. Cells were washed with PBS, released with EDTA, and analyzed by flow cytometry.
For another series, the system named is WT CHO-K1 cells. Description: Competition of guanidinoneomycin construct uptake by model glycans. Type of series: cell-based, Chinese hamster.
In series [5] the test system is Wild-type CHO cells. Description: Live-cell uptake of fluorescent guanidinoneomycin conjugate (streptavidin-Alexa-488), microscopy. In kind it is cell-based, Chinese hamster. To be noted: heparin 50 μg/ml. The procedure: Microscopy—Cells were cultured on Lab-Tek chambered coverglass slides (Electron Microscopy Sciences) in F12 medium. After washing with PBS, cells were incubated for 1 h in 1 ml of 60 nM guanidinoneomycin coupled to streptavidin-Alexa-488 (Molecular Probes) at 37° C. Guanidinoneomycin-A488 was prepared by incubating 1 μM guanidinoneomycinbiotin with 6 μg of streptavidin-Alexa-488 in 1 ml of medium. Hoechst 33342 (2 μg/ml; Molecular Probes) was added to cells for the last 20 min of incubation. Cells were washed three times with F12 medium before live cell imaging. Microscopic images were acquired on an Olympus IX70 DeltaVision Spectris Image Deconvolution system, equipped with a temperature and atmospherically controlled stage. Images were deconvolved (10 cycles) using SoftWoRx Explorer Suite software.

The subject of series [6] is MPS VII fibroblasts. In words: Uptake of GUS enzymes by MPS VII fibroblasts (β-glucuronidase activity). Type of series: cell-based, human. The procedure:
GUS activity was measured by assaying the conversion of 4-methylumbelliferyl β-d-glucuronide (MUG; Sigma) into the fluorochrome 4-methylumbelliferone. The assay was performed in 96-well plates, using 100 μl of reaction buffer containing 50 mmol/L sodium acetate (pH 5.2), 10 mmol/L EDTA, 0.01% bovine serum albumin, 0.1% Triton X-100, […] of MUG, and enzyme. After 1 hour at 37° C., fluorescent product was measured by fluorimetry (excitation at 360 nm, emission at 460 nm) and quantified using a standard curve of 4-methylumbelliferone. One unit (U) of activity is defined as the liberation of […] of 4-methylumbelliferone per hour at pH 5.2, 37° C. α-1-iduronidase activity was measured in a similar way using 4-methylumbelliferyl α-1-iduronide (Glycosynth, Warrington, UK) as substrate. The assay was performed in 10 μl of 50 mmol/L sodium formate (pH 3) buffer containing 10 mmol/L NaCl, 0.1 mg/ml bovine serum albumin, 50 μmol/l substrate, and 2 μl of enzyme.
To test whether GNeo-bGus was taken up by GUS-deficient cells, enzyme activity was measured in MPR VII fibroblasts after 2-hour incubation with various concentrations of unmodified bGus and G-Neo-bGus (see FIG. 15a). Normal HFF, MPS VII, and MPS I fibroblasts were cultured in Earl's Minimal Essential Medium supplemented with 15% of fetal bovine serum and penicillin/streptomycin (Invitrogen). Approximately 8×10^4 cells in 0.4 ml of medium were seeded in each well of a 24-well plate. After 3 days, cells were incubated in fresh medium with and without 5 mmol/L of M6P or glucose 6-phosphate (G6P) (Sigma). The cells were incubated for 2 hours at 37° C., washed twice with PBS, treated with trypsin/EDTA, and then combined with complete medium to inhibit the trypsin. […] In some experiments, cells were treated 3 hours with recombinant heparin lyases I, II, and III (5 mU/ml) in serum-free medium, and uptake was measured as described above in medium containing heparinases. Enzyme activity in the cell extracts was measured in triplicate using 5 μg of total cell protein. […]

The test system of series [7] is MPS VII fibroblasts. Description: [35S]glycosaminoglycan turnover, label-chase, MPS VII fibroblasts. To be noted: enzyme 2 hours, chase 24 hours. In kind it is cell-based, human. The procedure:
(§2) To test whether internalized GUS was functionally localized in lysosomes, a label-chase format was used in which cells were incubated with ^35S-labeled sulfate for 24 hours to radiolabel the sulfated glycosaminoglycans. The medium was changed, and after 24 hours, the amount of [^35S]glycosaminoglycans that remained associated with the cells was quantitated. Normal and MPS fibroblasts were incubated in DMEM/F12 medium supplemented with 10% dialyzed fetal bovine serum in order to increase the radiospecific activity of added ^35S4. Cells were seeded in a 12-well plate, and at confluence, 50 μCi of Na[^35S]O4 (PerkinElmer) was added in 1 ml of fresh medium. After 24 hours, the cells were rinsed twice with PBS, exposed to GUS or α-iduronidase for 2 hours, rinsed twice, and then chased for 24 hours in complete growth medium. The cells were harvested with trypsin, centrifuged (500 g, 5 minutes), and washed once. The sedimented cells were then resuspended in 100 μl of RIPA buffer (Sigma) and counted by liquid scintillation spectrometry using Scintillator Ultima Gold XR (PerkinElmer).

In another series the test system is MPS I fibroblasts. In words: [35S]glycosaminoglycan turnover, label-chase, MPS I fibroblasts. As to conditions: enzyme 2 hours, chase 24 hours. Type of series: cell-based, human. On the procedure: as §2

Entries after “also recorded” stand apart in the source; their conditions may differ.

In general, IC50 refers to the concentration needed to halve the response being measured. Regarding `N=C(N)NC[C@@H]1O[C@H](O[C@H]2[C@@H](O)[C@H](O[C@@H]3[C@@H](O)[C@H](NC(=N)N)C[C@H](NC(=N)N)[C@H]3O[C@H]3O[C@H](CNC(=N)N)[C@@H](O)[C@H](O)[C@H]3NC(=N)N)O[C@@H]2CO)[C@H](NC(=N)N)[C@@H](O)[C@@H]1O` [guanidinoneomycin, guanidino-neomycin B], the “inhibition of transport of BODIPY-Cys(Arg)9 into cells” value with 10T1/2 cells (competition experiment, FACS) was “effectively inhibits”. Besides, the 50% inhibitory concentration (IC50) in series [1] (biotinylated FGF-2 10 ng/ml, 1 h, 4° C.) is ~20 µM. For the same molecule, the “inhibition of fluorescent Arg9 binding and uptake” value with Wild-type CHO cells [2] is on record as “incomplete; also recorded: partially block”.

With `NC[C@@H]1O[C@H](O[C@H]2[C@@H](O)[C@H](O[C@@H]3[C@@H](O)[C@H](N)C[C@H](N)[C@H]3O[C@H]3O[C@H](CN)[C@@H](O)[C@H](O)[C@H]3N)O[C@@H]2CO)[C@H](N)[C@@H](O)[C@@H]1O` [neomycin, neomycin B, reference compound], the “enhancement of cellular uptake upon guanidinylation” value with 10T1/2 cells (relative to autofluorescence, BODIPY conjugates, FIG. 3 and Table 1) is given as “approximately 20 fold”. In addition, in series [1], the “inhibition of FGF-2 binding” value is on record as “did not inhibit binding”.

saporin: in the series on Wild-type CHO cells [3], the “cell toxicity” value is “No cell toxicity”.

Consider heparin [Heparin (A)], for which the “heparin concentration blocking uptake of fluorescent guanidinoneomycin conjugate (as low as)” value in the series on Wild-type CHO cells [4] was ≥ 100 ng/mL. In addition, the “increase of sensitivity of dimeric over monomeric construct to inhibition” value with WT CHO-K1 cells is reported as 3 fold. For the same molecule, the “inhibition of uptake of monomeric guanidinoneomycin 1” value in the series on WT CHO-K1 cells (at the tested concentrations) is “showed inhibition”. Further, the “effect of heparin in incubation medium on uptake of guanidinoneomycin-streptavidin-Alexa-488” value with Wild-type CHO cells [5] was “completely abolished uptake”.

B1: hGUS: human recombinant GUS (protein, UniProt P08236 23-651, looked up)
Beta-glucuronidase: LQGGMLYPQESPSRECKELDGLWSFRADFSDNRRRGFEEQWYRRPLWESGPTVDMPVPSSFNDISQDWRLRHFVGWVWYEREVILPERWTQDLRTRVVLRIGSAHSYAIVWVNGVDTLEHEGGYLPFEADISNLVQVGPLPSRLRITIAINNTLTPTTLPPGTIQYLTDTSKYPKGYFVQNTYFDFFNYAGLQRSVLLYTTPTTYIDDITVTTSVEQDSGLVNYQISVKGSNLFKLEVRLLDAENKVVANGTGTQGQLKVPGVSLWWPYLMHERPAYLYSLEVQLTAQTSLGPVSDFYTLPVGIRTVAVTKSQFLINGKPFYFHGVNKHEDADIRGKGFDWPLLVKDFNLLRWLGANAFRTSHYPYAEEVMQMCDRYGIVVIDECPGVGLALPQFFNNVSLHHHMQVMEEVVRRDKNHPAVVMWSVANEPASHLESAGYYLKMVIAHTKSLDPSRPVTFVSNSNYAADKGAPYVDVICLNSYYSWYHDYGHLELIQLQLATQFENWYKKYQKPIIQSEYGAETIAGFHQDPPLMFTEEYQKSLLEQYHLGLDQKRRKYVVGELIWNFADFMTEQSPTRVLGNKKGIFTRQRQPKSAAFLLRERYWKIANETRYPHSVAKSQCLENSLFT
Consider B1, for which the “effect of heparin lyase treatment of cells on uptake” value in the series on MPS VII fibroblasts [6] is “insensitive”. In the series on MPS VII fibroblasts [6] (5 mmol/l M6P), the “effect of M6P on uptake” value is “greatly inhibited uptake”. Further, the “uptake” value with MPS VII fibroblasts [6] (2-hour incubation) is “robust”. In addition, in the series with MPS VII fibroblasts [7], the “ED50, [35S]glycosaminoglycan turnover” value is on record as ~3 mU.

B2: Aldurazyme: recombinant therapeutic α-1-iduronidase (protein, UniProt P35475 28-653, looked up)
Alpha-L-iduronidase: APHLVHVDAARALWPLRRFWRSTGFCPPLPHSQADQYVLSWDQQLNLAYVGAVPHRGIKQVRTHWLLELVTTRGSTGRGLSYNFTHLDGYLDLLRENQLLPGFELMGSASGHFTDFEDKQQVFEWKDLVSSLARRYIGRYGLAHVSKWNFETWNEPDHHDFDNVSMTMQGFLNYYDACSEGLRAASPALRLGGPGDSFHTPPRSPLSWGLLRHCHDGTNFFTGEAGVRLDYISLHRKGARSSISILEQEKVVAQQIRQLFPKFADTPIYNDEADPLVGWSLPQPWRADVTYAAMVVKVIAQHQNLLLANTTSAFPYALLSNDNAFLSYHPHPFAQRTLTARFQVNNTRPPHVQLLRKPVLTAMGLLALLDEEQLWAEVSQAGTVLDSNHTVGVLASAHRPQGPADAWRAAVLIYASDDTRAHPNRSVAVTLRLRGVPPGPGLVYVTRYLDNGLCSPDGEWRRLGRPVFPTAEQFRRMRAAEDPVAAAPRPLPAGGRLTLRPALRLPSLLLVHVCARPEKPPGQVTRLRALPLTQGQLVLVWSDEHVGSKCLWTYEIQFSQDGKAYTPVSRKPSTFNLFVFSPDTGAVSGSYRVRALDYWARPGPFSDPVPYLEVPVPRGPPSPGNP
modifications: laronidase
notes: recombinant therapeutic α-1-iduronidase
As to B2, the “ED50, [35S]glycosaminoglycan turnover” value in the series on MPS I fibroblasts is 1 U.

B3: GNeo-AP-α-1-iduronidase: GNeo conjugated to AP-α-1-iduronidase (conjugate, UniProt P35475 28-653, looked up)
Alpha-L-iduronidase: B2 Alpha-L-iduronidase
modifications: GNeo conjugate, dephosphorylated
notes: GNeo conjugated to AP-α-1-iduronidase
B3: the “ED50, [35S]glycosaminoglycan turnover” value in the series with MPS I fibroblasts worked out at 0.2 units.

B4: AP-α-1-iduronidase: α-1-iduronidase treated with alkaline phosphatase (protein, UniProt P35475 28-653, looked up)
Alpha-L-iduronidase: B2 Alpha-L-iduronidase
modifications: dephosphorylated by alkaline phosphatase
notes: α-1-iduronidase treated with alkaline phosphatase
B4: the “ED50, [35S]glycosaminoglycan turnover” value in the series with MPS I fibroblasts was found to be 30 U.
